In publication PMC2875737, “Determination of drug-like properties of a novel antileishmanial compound: In vitro absorption, distribution, metabolism, and excretion studies” (Indian Journal of Pharmacology, 2009):
Values after ≈ are worked out from the molar mass of the structure shown. Values joined by “and” are separate entries in the source; they are usually repeats but may differ in a detail not shown here. Equal entries are not always repeated. Structures can show the parent of a compound that is named as a salt. Blank lines part the entries; values can stand above or below the molecule they belong to.

How the values were obtained:
[1] = physchem; conditions: for solubility at 2 h: 25 °C, pH 7.4, aqueous buffer, kinetic from dmso stock
Description: A 4 μl of 25 mM stock (DMSO) of S-4 was diluted to 200 μl with PBS (pH 7.4) and incubated at 25°C for 2 hours with constant shaking. The undissolved compound, if any, was filtered through the PVDF membrane filter (Millipore, MA). To 120 μl of the filtrate, 80 μl of acetonitrile was added and mixed thoroughly. The concentration of S-4 in the filtrate was determined spectrophotometrically from linearity (5-400μM) of the compound prepared in PBS containing 40% acetonitrile. The observed solubility result was multiplied by 200/120 to account for the acetonitrile addition in the test filtrate.

[2] = Distribution coefficient Log D in cyclohexane/PBS pH 7.4; type: physicochemical; conditions: PBS pH 7.4, average of three experiments
Description: Log D in cyclohexane/PBS was performed following the similar method as done for Log D in octanol/PBS. Here, 5 mM compound stock was used to prevent precipitation problem with this system and volumes of cyclohexane were 150, 200, 400, and 800 μl.

[3] = set-up: method as in PMID 14567798, PMID 11841071; conditions: PBS pH 7.4; cited from earlier work
[4] = cited from earlier work
[5] = test system: human plasma protein; set-up: method as in PMID 14567798, PMID 11841071; conditions: cited from earlier work
[6] = PAMPA standards; cited from earlier work
[7] = in vitro; conditions: human
Description: The binding of compound to human plasma was determined using equilibrium dialysis with 6-hour incubation with constant shaking at 37°C as per the method described by Kaplita and Liu.[4] The initial concentration of the compound used was 10 μM (DMSO ≤1%). Quantitations were done by HPLC.

[8] = set-up: method as in PMID 14567798, PMID 11841071; conditions: cited from earlier work
[9] = Distribution coefficient (Log D) in octanol/PBS pH 7.4
[10] = Chemical stability in PBS pH 7.4, simulated gastric fluid and simulated intestinal fluid; type: physicochemical
Description: A 100-μM solution of S-4 was prepared in phosphate buffered saline (PBS), pH 7.4, from a stock of 25 mM in DMSO and was kept at 25°C for 24 hours. Percentage stability was determined based on chromatographic peak area of the sample kept for 24 hours and that of 0 hour (freshly prepared and injected) sample. All the samples were prepared in triplicate.
Similar studies were carried out at 37°C replacing PBS with simulated gastric fluid (SGF) and simulated intestinal fluid (SIF) which were prepared following United States Pharmacopoeia, and stability was checked for upto 2 hours for SGF and 4 hours for SIF.

[11] = Parallel artificial membrane permeability assay (PAMPA); type: in vitro ADME
Description: Millipore acceptor and donor plate (Cat No: MAPB310 and MASSACCEPTOR) were used in the study. […] Incubation was carried out for 16 hours at room temperature in a water-saturated chamber to avoid evaporation from donor wells. […] To a 200 μl acceptor sample, a 100 μl donor solution was added, mixed properly, and this mixture was termed as “equilibrium.” The absorbance of the equilibrium was also determined. Five standard compounds of different permeability (high: […] (1) Calculation: […] where C = (VD × VA)/[(VD + VA)× Area (cm^2) × porosity × time (seconds)] Where VD = volume of donor (ml), VA = volume of acceptor (ml). A linear graph was plotted with observed and reported values for the standard drugs. The experimental method was considered valid for permeability ranking if linear correlation coefficient (R^2) was more than 0.95.

[12] = test system: rat liver microsomes; test: Metabolism by liver microsomal enzymes; type: in vitro ADME; conditions: rat liver microsomes 0.5 mg protein/ml, 10 μM, 1 hour, 37°C, NADPH regeneration system; ± SEM
Description: Ethical clearance was obtained from Animal Ethics Committee of Indian Institute of Chemical Biology for use of animals for the present study. […] The % stability (% compound remaining after metabolism) was calculated as follows:
(3) % Compound remaining=100×(peak area of 1 hour sampl/peak area of 0 hour sample)
For 0 hour sample, the compound was added after addition of ice-cold acetonitrile and then vortexed, followed by centrifugation as mentioned above.

[13] = test system: Leishmania donovani; set-up: method as in ref 11, 12 = [11]; PMID 11937327; doi:10.1016/s0968-0896(02)00046-9; 11 Sahu NP Pal C Mandal NB Banerjee S Raha M Kundu AP Synthesis of a novel quinoline derivative, 2-(2-Methylquinolin-4ylamino)-N-phenylacetamide: A potential antileishmanial agent Bioorg Med Chem 2002 || [12]; 12 Sahu NP Mondal NB Banerjee S Raha R Chakraborti G Basu A Indian patent No. 191818 2004; conditions: cited from earlier work
[14] = set-up: method as in ref 11 = [11]; PMID 11937327; doi:10.1016/s0968-0896(02)00046-9; 11 Sahu NP Pal C Mandal NB Banerjee S Raha M Kundu AP Synthesis of a novel quinoline derivative, 2-(2-Methylquinolin-4ylamino)-N-phenylacetamide: A potential antileishmanial agent Bioorg Med Chem 2002; conditions: cited from earlier work
[15] = test system: Leishmania donovani; conditions: cited from earlier work
[16] = simulated gastric fluid (SGF), 37°C, 2 hours
[17] = simulated intestinal fluid (SIF), 37°C, 4 hours

solubility at 2 h [1]: 48.5 ± 3.21 µM (≈ 18.2 µg/mL)
logD hydrocarbon water ([2]; cyclohexane/PBS): 0.52
SMILES: O=C(CCCN1CCC(O)(c2ccc(Cl)cc2)CC1)c1ccc(F)cc1 [Haloperidol]
Solubility, reported value [3]: 40 to 63 µM
Log D cyclohexane/PBS, reported value [4]: 0.46

SMILES: CC(C)NCC(O)COc1cccc2ccccc12.Cl (centres unmarked) [Propranolol HCl]
Percentage of plasma protein binding, reported value [5]: 80-93%
Permeability ranking of standard compounds [6]: high

Solubility ([1]; pH 7.4): 18.94 ± 1.00 µM (≈ 5.08 µg/mL)
SMILES: CC/C(=C(/CC)c1ccc(O)cc1)c1ccc(O)cc1 [Diethylstilbesterol]
Solubility, reported value [3]: 5 to 20 µM

SMILES: NC(=O)N1c2ccccc2C=Cc2ccccc21 [carbamazepine]
Permeability ranking of standard compounds [6]: high

fraction unbound at 6 h, 10 μM ([7]; plasma): 0.852
SMILES: CNC(=C[N+](=O)[O-])NCCSCc1ccc(CN(C)C)o1 [Ranitidine HCl]
Percentage of plasma protein binding, reported value [5]: 10-19%

logD hydrocarbon water [2]: -1.28
fraction unbound at 6 h, 10 μM ([7]; plasma): 0.0179
SMILES: CC(=O)CC(c1ccccc1)c1c(O)c2ccccc2oc1=O (centres unmarked) [Warfarin]
Percentage of plasma protein binding, reported value [5]: 99%
Permeability ranking of standard compounds [6]: medium
Log D cyclohexane/PBS, reported value [4]: −1.31

fraction unbound at 6 h, 10 μM [7]: 0.493
SMILES: CN(Cc1cnc2nc(N)nc(N)c2n1)c1ccc(C(=O)N[C@@H](CCC(=O)O)C(=O)O)cc1 [Methotrexate]
Percentage of plasma protein binding, reported value [5]: 35-57%
Permeability ranking of standard compounds [6]: very low

solubility at 2 h [1]: > 400 µM
SMILES: O=C(O)Cc1ccccc1Nc1c(Cl)cccc1Cl [Diclofenac Sodium]
Solubility, reported value [3]: > 400 µM

logD [9]: -0.25
SMILES: COCCc1ccc(OCC(O)CNC(C)C)cc1 (centres unmarked) [Metoprolol tartrate]
Log D octanol/PBS, reported value [8]: −0.30

Stability (% remaining) ([10]; 100 μM in PBS pH 7.4, 25°C, 24 hours, HPLC): 99.16 ± 1.32%
remaining at 24 h, 100 μM ([10]; phosphate buffered saline, pH 7.4, 100 μM in PBS pH 7.4, 25°C, 24 hours, HPLC): > 95%
Stability (% remaining) [10, 16]: 101.19± 0.76%
remaining at 2 h, 100 μM [10, 16]: > 95%
Stability (% remaining) [10, 17]: 97.70 ± 0.15%
remaining at 4 h, 100 μM [10, 17]: > 95%
solubility at 2 h ([1]; PBS): 300 ± 6.42 µM (≈ 87.3 µg/mL)
Papp at 16 h, 250 μM ([11]; PBS pH 7.4 (5% DMSO), 16 hours, room temperature, ± SEM, read-out: Log Pe (converted)): 2.95 ×10⁻⁶ cm/s
Permeability ranking ([11]; ranking against standard drugs): medium
logD hydrocarbon water ([2]; cyclohexane/PBS): -1.33
fraction unbound at 6 h, 10 μM [7]: 0.212
% Parent compound remaining, result [12]: 36.07% and 36.07 ± 4.15%
logD [9]: 0.54
SMILES: Cc1cc(NCC(=O)Nc2ccccc2)c2ccccc2n1 [S-4, 2-(2-methylquinolin-4-ylamino)-N-phenylacetamide]
Reduction of parasite burden in spleen and liver compared with sodium antimony gluconate [13]: significantly more effective than sodium antimony gluconate
Toxicity to different organs [14]: no alarming sign to different organs tested

SMILES: Cn1c(=O)c2c(ncn2C)n(C)c1=O [Caffeine]
fraction unbound at 6 h, 10 μM [7]: 0.593
Percentage of plasma protein binding, reported value [5]: 29-43%

SMILES: O=C(Nc1ccccc1Cc1nc2ccccc2cc1-c1c[nH]c2ccccc12)C(Cl)Cl [2-(2′′-dichloroacetamidobenzyl)-3-(3′-indoyl)-quinoline]
Antileishmanial activity [15]: significant antileishmanial activity
